Reference: patent publication US4775676A, “Thiazolidine derivatives, process for their preparation and pharmaceutical compositions” (Chiesi Farmaceutici S.p.A., priority 1985, dated 1988)
Structures can show the parent of a compound that is named as a salt.

Assays:
[1] = Toxicity after single administration; type: in vivo; settings: mouse, in vivo, po, mice, p.o., death-rate after 7 days, read-out: Acute toxicity LD50 approx.
Protocol: (§1) Toxicity after single administration
(§2) IVA:NMRI (SPF) mice, fasted for 18 hours before treatment with water ad libitum, were used. The compounds, dissolved or suspended in a 0.2% Tween® 80 aqueous solution, were administered orally, at constant concentration (10%). According to the death-rate observed after 7 days from treatment, the approximate LD50 values, reported in Table 1, were interpolated on Probi ts chart.

respiratory tract = test: Mucosecretodynamic activity, "in vivo" fluorescein test; parameters: species or system male IVA-NMRI (SPF) mice; settings: mice, p.o., 90 minutes before i.v. fluorescein, increase of fluorescein excretion; for ED50: Mus musculus, po
Protocol: Mucosecretodynamic activity
Male IVA-NMRI (SPF) mice, housed for at least 1 week under standard conditions, fasted (water ad libitum) for 18 hours before treatment, were used.
The compounds, dissolved or suspended in 20 ml/kg of a 0.2% Tween® 80 aqueous suspension, were administred orally 90 minutes before the intravenous injection of 1% (5 ml/kg) fluorescein. Animals treated p.o. with the only vehicle were used as a control group. After 30 minutes from the fluorescein injection the animals were killed and subjected to incannulation of the trachea. Then the respiratory tract was washed and the spectrophotometric dosage of the fluorescein was carried out against phosphate buffer on the so collected eluate, suitably diluted with phosphate buffer and centrifugated.
The amount of fluorescein was determined by means of a calibration curve prepared under the same experimental conditions and the excretion was expressed as ng/hour/10 g body weight. For each experimental session the percent increases of excretion versus controls were calculated.

porcine gastric mucine = test: "In vitro" mucolytic activity (viscoelasticity of porcine gastric mucine); type: biochemical; settings: 6% porcine gastric mucine, 25° C., 30 minutes, 0.075 Hz, versus control
Protocol: "In vitro" mucolytic activity
Control samples were similarly added with the vehicle only. After incubation at 25° C. for 30 minutes, the analysis of the rheologic characteristics was carried out by means of Contraves Low-Shear 30 sinus viscosimeter provided with an oscillating device for the study of the viscoelasticity. The dynamic measurements of the viscoelasticity were carried out at a single frequency (0.075 Hz), using an appropriate concentrical cylinder measurement system, particularly suited for bronchial mucus (Contraves MS-LS 1-1).
The rheogramm was recorded on X/Y Rikadenki 11T recorder and the […] determination was carried out by means of vectorial calculation.
The percent decreases versus control samples, reported in Table 1, were determined from the means of the values of said parameters (at least 7 replications per sample).

mice = test: Toxicity after single administration; type: in vivo; settings: p.o., death-rate after 7 days
Protocol: as §1, §2

Compound | LD50 at 168 h [1] | ED50 (respiratory tract) | "in vitro" % decrease elasticity (G') (porcine gastric mucine) | "in vitro" % decrease viscosity (.eta.) (porcine gastric mucine) | also measured
CC1(C(=O)N2CCSC2)CCC(C(=O)O)C1(C)C (centres unmarked) [Compound 12, -3-[(3-thiazolidyl)-carbonyl]-2,2,3-trimethyl-cyclopentanecarboxylic acid lysine salt] | > 4000 mg/kg | 310 mg/kg | 13% | 0% | –
O=C(O)CCC(=O)N1CCSC1 [Compound 10, 4-oxo-4-(3-thiazolidyl)butanoic acid sodium salt] | – | – | – | – | Acute toxicity LD50 approx. (mice; sodium salt, 10080 min): > 4000 mg/kg
CCC1SCCN1C(=O)C1C2C=CC(C2)C1C(=O)O (centres unmarked) [Compound 2, 3-[3-[(2-Ethyl)-thiazolidine]carbonyl]-bicyclo-[2,2,1]-hepta-5-ene-2-carboxylic acid] | ~3000 mg/kg | – | 33% | 58% | –
CC(=O)N[C@@H](CS)C(=O)O [N-acetyl-L-cysteine, N--acetyl-L-cysteine, reference compound] | – | – | 39% | 53% | –
4-methyl-2-[(3-thiazolidyl)carbonyl]-cyclohexane-carboxylic acid lysine salt [Compound 11] | – | – | 6% | 9% | Acute toxicity LD50 approx. (mice): > 4000 mg/kg; "in vivo" fluorescein test ED50 (respiratory tract): 300 mg/kg
O=C(O)CCC(=O)N1CCSC1 [Compound 4, 4-oxo-4-(3-thiazolidyl)-butanoic acid] | ~4000 mg/kg | – | – | – | –
N[C@@H](CSCC(=O)N1CCSC1)C(=O)O [Compound 8, 2-Amino-3-[[(3-thiazolidyl)-carbonylmethyl]thio]propionic acid] | > 4000 mg/kg | – | – | – | –
O=C(O)C1C2C=CC(C2)C1C(=O)N1CCSC1 (centres unmarked) [Compound 3, 3-[(3-thiazolidyl)-carbonyl]-bicyclo-[2,2,1]-hepta-5-ene-2-carboxylic acid] | ~1500 mg/kg | 170 mg/kg | – | – | –
CC(SCC(=O)N1CCSC1)C(=O)NCC(=O)O (centres unmarked) [Compound 9, 2-[2-[(3-thiazolidyl)carbonylmethylthio]-propionamide]acetic acid] | > 4000 mg/kg | – | 21% | 40% | –
O=C(CCC(=O)N1CCSC1)N1CCSC1 [Compound 7, 1,4-Bis-(3-thiazolidyl)-1,4-dioxo-butane] | ~3000 mg/kg | ~750 mg/kg | – | – | –
